In US7425579B2, “Methods for inhibiting activity of polyamine transporters” (Universite Laval, priority 1998, dated 2008):

Columns and labels:
[1] = tested on: Jurkat, LAN-1, L1210, T-47D, ZR-75-1 and MDA-MB-231 cells; experiment: Effect of BNSD-X on cell proliferation in various mammalian cell lines; type: cell-based; conditions: 1 mM aminoguanidine; 4 to 11 d
Protocol: FIGS. 3A and 3B are graphs showing the effect compounds used in a method according preferred embodiment of the present invention, on cell proliferation. In particular, they relate to the effect of selected BSD and BNSD derivatives on T-47D cell proliferation. Cells were incubated for 9 d with the indicated concentrations of BSD-2 (∘), BNSD-4 (●), BSD-4 (□), BNSD-6 (▪), BSD-10 (Δ), BSD-4-ene (▴) and BSD-4-yne (▾) in medium containing 1 mM aminoguanidine, and total DNA content per culture was then determined. B, Effect of BNSD-X (N,N,N′,N′-tetrakis-(3-aminopropyl)-p-diaminoxylene) on cell proliferation in various mammalian cell lines. Jurkat (∘), LAN-1 (●), L1210 (□), T-47D (▪), ZR-75-1 (Δ) and MDA-MB-231 (▴) cells were grown to near confluency or saturation (for 4 to 11 d according to the cell line considered) with the indicated concentrations of BNSD-X in the presence of 1 mM aminoguanidine, and total DNA content per culture was then determined. Data are given as the mean±SD for triplicate cultures from one out of at least two identical experiments;
The effect of transport inhibitors on cell proliferation was evaluated by determination of cell number (L1210, Jurkat) using electronic sizing with a Model ZM Coulter counter (Coulter Electronics, Hialeah, Fla.), or DNA content per culture (for all other cell lines) with the 3,5-diaminobenzoic acid assay. […]

CHO-TOR cells = experiment: Potentiation of DFMO-induced cytostasis in CHO-TOR cells; type: cell-based, Chinese hamster; conditions: 2 mM DFMO; 4 d
Protocol: FIGS. 9A and 9B are graphs showing that potentiation of DFMO-induced cytostasis by a compound used in a method according to a preferred embodiment of the invention requires a functional polyamine transport system. In particular, CHO-TOR cells (A) and their polyamine transport-deficient mutant subline CHO-MG (B) were grown in medium containing 1 mM aminoguanidine and the indicated concentration of spermidine, in the presence of 2 mM DFMO (●), BNSD-X (□), DFMO+BNSD-X (▪), or vehicle only (∘). Cells were harvested after 4 d for determination of total DNA/well. Data are presented as the mean±SD for triplicate cultures from one representative experiment;
To determine the ability of polyamine transport antagonists to potentiate DFMO-induced inhibition of cell proliferation in the presence of exogenous polyamines, cells were grown for the indicated period in growth medium supplemented with 1 mM aminoguanidine, and either DFMO (1 to 5 mM), the indicated transport inhibitor (50 or 100 μM), or the combination thereof, as well as increasing concentrations of spermidine (0.1 to 300 μM). Fresh medium was added every other day, and cell mass was determined at various time points during the period of exponential growth, or at the end of the experimental period. […]

NCCCN(CCCN)Cc1ccc(CN(CCCN)CCCN)cc1 [28a, N,N,N′,N′-tetrakis-(3-aminopropyl)-p-diaminoxylene]
effect on proliferation of a panel of mammalian cell lines [1]: remarkably inert | potentiation of DFMO-induced cytostasis in the absence of exogenous spermidine, CHO-TOR (CHO-TOR cells): observed in the parental cell line
